Reference: paper PMC4312132, “Phenylalanine in the Pore of the Erwinia Ligand-Gated Ion Channel Modulates Picrotoxinin Potency but Not Receptor Function” (Biochemistry, 2014)
Where two headings read alike, the source gives them in different places.

Experiments:
[1] = system: F16′A mutant ELIC; conditions: F16′A mutant vs wild type; as previously shown; cited from earlier work
[2] = target: T1, wild type ELIC (Dickeya chrysanthemi, UniProt P0C7B7); test: Inhibition of GABA-elicited currents of wild-type ELIC in Xenopus oocytes; assay type: cell-based, Erwinia chrysanthemii; conditions: wild type ELIC; inhibition measured at the GABA EC50; read-out: IC50
T1 construct: expressed in transfected cells; host or cells: Xenopus laevis oocytes (cRNA injection)
T1 sequence (P0C7B7 whole entry): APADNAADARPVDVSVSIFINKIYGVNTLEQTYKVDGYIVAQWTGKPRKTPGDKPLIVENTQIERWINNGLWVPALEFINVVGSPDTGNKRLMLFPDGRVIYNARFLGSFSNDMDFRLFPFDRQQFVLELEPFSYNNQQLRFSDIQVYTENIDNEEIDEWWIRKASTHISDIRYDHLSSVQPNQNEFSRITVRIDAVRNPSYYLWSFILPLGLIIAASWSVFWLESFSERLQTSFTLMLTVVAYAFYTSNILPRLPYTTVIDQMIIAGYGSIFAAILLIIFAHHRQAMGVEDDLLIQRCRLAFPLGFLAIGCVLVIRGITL
Protocol: Xenopus laevis oocyte-positive females were purchased from NASCO (Fort Atkinson, WI) and maintained according to standard methods. Harvested stage V and VI Xenopus oocytes were washed in four changes of Ca^2+-free ND96 [96 mM NaCl, 2 mM KCl, 1 mM MgCl2, and 5 mM HEPES (pH 7.5)], defolliculated in 1.5 mg mL^–1 collagenase type 1A for approximately 2 h, washed again in four changes of ND96, and stored in ND96 at 16 °C containing 2.5 mM sodium pyruvate, […] gentamycin, and 0.7 mM theophylline.
ELIC (GenBank accession number ADN00343.1) was kindly provided by C. Ulens. For expression in Xenopus oocytes, it was cloned into pGEMHE with the signal sequence of the human α7 nACh receptor. Site-directed mutagenesis was performed with the QuikChange mutagenesis kit (Stratagene, La Jolla, CA). cRNA was transcribed in vitro from the linearized pGEMHE cDNA template using the mMessage mMachine T7 transcription kit (Ambion, Austin, TX). Stage V and VI oocytes were injected with 20 ng of cRNA, and currents were recorded 1–3 days postinjection.
Using two-electrode voltage clamp, Xenopus oocytes were clamped at −60 mV using an OC-725 amplifier (Warner Instruments, Hamden, CT), Digidata 1322A, and the Strathclyde Electrophysiology Software Package (Department of Physiology and Pharmacology, University of Strathclyde, Glasgow, U.K.). Currents were recorded at 5 kHz and filtered at a frequency of 1 kHz. Microelectrodes were fabricated from borosilicate glass (GC120TF-10, Harvard Apparatus, Edenbridge, Kent, U.K.) using a one-stage horizontal pull (P-87, Sutter Instrument Co., Novato, CA) and filled with 3 M KCl. Pipette resistances ranged from 1.0 to 2.0 MΩ. Oocytes were perfused with ND96 at a constant rate of 12 mL min^–1 with complete solution exchange within 5 s. Drug application was accomplished via a simple gravity-fed system calibrated to run at the same rate. Inhibition by test compounds was measured at the GABA EC50 for each mutant.
Analysis and curve fitting were performed using Prism version 4.03 (GraphPad Software, San Diego, CA). Concentration–response data for each oocyte were normalized to the maximal current for that oocyte and the mean ± standard error of the mean (SEM) for a series of oocytes pooled and plotted against agonist or antagonist concentration and iteratively fit to the four-parameter logistic equation. Statistical analysis was performed using a Student’s t test.

[3] = target: T1, wild type ELIC; conditions: previously identified; cited from earlier work
[4] = system: ELIC with mutations of residues 2′ and 6′; conditions: mutations of residues 2′ and 6′ in ELIC; cited from earlier work

NCCS [cysteamine]
fold change in cysteamine EC50 [1]: < 10 fold

CCCC(C(=O)OCCN(CC)CC)(c1ccccc1)c1ccccc1 [proadifen]
IC50 [2]: 8.1 µM
IC50 [3]: 8 µM

O=S1OC[C@@H]2[C@H](CO1)[C@@]1(Cl)C(Cl)=C(Cl)[C@]2(Cl)C1(Cl)Cl (stereo partly drawn) [α-endosufan]
inhibition of ELIC [4]: abolish inhibition
